Experiments:
[1] = system: TNF-α production from human whole blood; assay: Inhibition of TNF-α production from human whole blood (hWBA); type: cell-based; settings: human whole blood diluted 1:1, 1 h pre-incubation, LPS, 3.5 h, TNF-α by ELISA; N/A = Not Active
Protocol: The compounds' ability to inhibit TACE activity can also be determined in human whole blood using the assay conditions described n Example 15 below.
Human whole blood was diluted 1:1 with serum free medium (RPMI, L-glutamine, Pen-Strep, HEPES) and incubated with a test compound in a final volume of 360 μl for 1 h at 37° C. Forty microliters of LPS (10 μg/mL) was then added. Supernatant was collected after 3.5 h incubation and the concentration of TNF-α was determined by ELISA (R&D Systems). The concentration of the test compound which inhibits 50% of the amount of TNF-α from the untreated control was determined.

[2] = Area under the curve determinations of plasma levels in rats (rrAUC); type: in vivo; settings: rapid rat AUC of the drug (parent) in plasma; oral 10 mg/kg, fasted rats, blood 0.5-6 h post-dosing
Protocol: To gain insight into the pharmacokinetic properties of the compounds of formula (I), plasma levels of the compounds in rats were determined according to the protocol described in Korfmacher, W. A,; Cox, K. A.; Ng, K. J.; Veals, J.; Hsieh, Y.; Wainhaus, S.; Broske, L; Prelusky, D.; Nomeir, A.; White, R. E. Rapid Commun. Mass Spectrorn, 2001, 15, 335. Briefly, rats, after an overnight fast, were dosed orally with the test compound at a dose of 10 mg/kg in a 5 mL/kg dose volume. Blood was collected at 0.5, 1, 2, 3, 4, and 6 h post-dosing. Mass spectrometry using high performance liquid chromatography was used to identify and measure the concentrations of the test compounds in the plasma at the various time points. The parent ion of each test compound was used to identify and quantitate the compounds in plasma.

Compound | IC50 [1] [µM] | PK (rrAUC) parent [2] [µM·h]
COc1ccc2c(c1)C(=O)N(C[C@@]1(c3cc4ncccc4o3)NC(=O)N(COC(=O)c3ccccc3OC(C)=O)C1=O)C2 [Compound 65] | 0.56 | 4.426
COc1ccc2c(c1)C(=O)N(C[C@@]1(c3cc4cc(-c5cc(=O)[nH]c(N)n5)ccc4o3)NC(=O)N(COC(=O)C(C)(C)C)C1=O)C2 [Compound 27] | 0.94 | 0
COc1ccc2c(c1)C(=O)N(C[C@]1(c3cc4ncccc4o3)C(=O)N(C(C)OC(C)=O)C(=O)N1C(C)=O)C2 (some centres unmarked) [Compound 78] | 2.12 | –
CCOP(=O)(OCC)OCN1C(=O)N[C@@](CN2Cc3ccc(OC)c(F)c3C2=O)(c2cc3nc(N4CCN(CC)CC4)ccc3o2)C1=O [Compound 73] | 0.255 | –
COc1ccc2c(c1)C(=O)N(C[C@@]1(c3cc4cnccc4o3)NC(=O)N(COC(=O)N3CCN(C)CC3)C1=O)C2 [Compound 68] | 1.31 | 13.539
COc1ccc2c(c1)C(=O)N(C[C@@]1(c3cc4cnccc4o3)NC(=O)N(CN(C)C(=O)C(C)(C)C)C1=O)C2 [Compound 76.2] | 0.754 | 0.31
COc1ccc2c(c1)C(=O)N(C[C@@]1(c3cc4cnccc4o3)NC(=O)N(COP(=O)(OCc3ccccc3)OCc3ccccc3)C1=O)C2 [Compound 74] | 3.15 | –
COc1ccc2c(c1)C(=O)N(C[C@@]1(c3cc4cnccc4o3)NC(=O)N(COC(=O)OCCN(C)C)C1=O)C2 [Compound 63.4] | 0.427 | 1.604
COc1ccc2c(c1)C(=O)N(C[C@]1(c3cc4cnccc4o3)C(=O)N(COC(=O)c3ccccc3OC(C)=O)C(=O)N1C(C)=O)C2 [Compound 83] | 0.931 | 0
CCOCCOC(=O)OCN1C(=O)N(C(=O)OCCOCC)[C@@](CN2Cc3ccc(OC)cc3C2=O)(c2cc3cnccc3o2)C1=O [Compound 89.1] | 3.15 | –
COc1ccc2c(c1)C(=O)N(C[C@]1(c3cc4cnccc4o3)C(=O)N(COC(=O)OCCN(C)C(=O)OCc3ccccc3)C(=O)N1C(=O)OCCN(C)C(=O)OCc1ccccc1)C2 [Compound 89] | 4.89 | –
COc1ccc2c(c1)C(=O)N(C[C@@]1(c3cc4cnccc4o3)NC(=O)N(C(C)OC(=O)N(C)C)C1=O)C2 (some centres unmarked) [Compound 70] | 0.774 | –
COc1ccc2c(c1)C(=O)N(C[C@@]1(c3cc4cnccc4o3)NC(=O)N(COP(=O)(O)O)C1=O)C2 [Compound 74.1] | 0.72 | –
COc1ccc2c(c1)C(=O)N(C[C@]1(c3cc4ncccc4o3)C(=O)N(COC(=O)C(C)(C)C)C(=O)N1COC(=O)C(C)(C)C)C2 [Compound 80] | – | 3.092
COCCOCCOCCN1C(=O)N[C@@](CN2Cc3ccc(OC)cc3C2=O)(c2cc3ncccc3o2)C1=O [Compound 47] | – | 0.019
COc1ccc2c(c1)C(=O)N(C[C@@]1(c3cc4cnccc4o3)NC(=O)N(CCN3CCOCC3)C1=O)C2 [Compound 50] | – | 0
COc1ccc2c(c1F)C(=O)N(C[C@@]1(c3cc4cc([C@@]5(C)NC(=O)NC5=O)c(F)cc4o3)NC(=O)N(COC(=O)C(C)(C)C)C1=O)C2 [Compound 30] | – | 0.335
COc1ccc2c(c1)C(=O)N(C[C@@]1(c3cc4cnccc4o3)NC(=O)N(C(C)OC(=O)N3CCN(C)CC3)C1=O)C2 (some centres unmarked) [Compound 71] | 9.92 | –
COc1ccc2c(c1)C(=O)N(C[C@@]1(C#Cc3ccc(-c4ncccc4OC(=O)C(C)(C)C)cc3)NC(=O)N(COC(=O)C(C)(C)C)C1=O)C2 [Compound 42] | 0.794 | –
COc1ccc2c(c1)C(=O)N(C[C@@]1(c3cc4cnccc4o3)NC(=O)N(C(C)OC(=O)OC3COCOC3)C1=O)C2 (some centres unmarked) [Compound 60.1] | – | 0

More lines, now with the values ahead:

IC50 [1] [µM] | PK (rrAUC) parent [2] [µM·h] | Compound
0.25 | 0 | COc1ccc2c(c1)C(=O)N(C[C@@]1(c3cc4cnccc4o3)NC(=O)N(COC(=O)OC(C)C)C1=O)C2 [Compound 62]
0.079 | – | COc1ccc2c(c1F)C(=O)N(C[C@@]1(c3cc4nc(C(N)=O)ccc4o3)NC(=O)N(COC(=O)C(C)(C)C)C1=O)C2 [Compound 35]
0.313 | – | COCCOCC(=O)OCN1C(=O)N[C@@](CN2Cc3ccc(OC)cc3C2=O)(c2cc3cnccc3o2)C1=O [Compound 67.2]
0.061 | 19.953 | CCN1CCN(c2ccc3oc([C@]4(CN5Cc6ccc(OC)c(F)c6C5=O)NC(=O)N(COC(=O)C(C)(C)C)C4=O)cc3n2)CC1 [Compound 3]
0.244 | 4.316 | COc1ccc2c(c1)C(=O)N(C[C@@]1(c3cc4cnccc4o3)NC(=O)N(COC(=O)[C@H](N)C(C)C)C1=O)C2 [Compound 35.3]
0.101 | 0.094 | COc1ccc2c(c1F)C(=O)N(C[C@@]1(c3cc4ncc(C(N)=O)cc4o3)NC(=O)N(COC(=O)C(C)(C)C)C1=O)C2 [Compound 19]
0.282 | 0.148 | COc1ccc2c(c1)C(=O)N(C[C@@]1(c3cc4nc(N5CCCNC5=O)ccc4o3)NC(=O)N(COC(=O)C(C)(C)C)C1=O)C2 [Compound 20]
0.266 | 1.202 | COc1ccc2c(c1)C(=O)N(C[C@@]1(c3cc4nc(N5C(=O)CCC5C)ccc4o3)NC(=O)N(COC(=O)C(C)(C)C)C1=O)C2 (some centres unmarked) [Compound 10]
0.192 | 4.557 | COc1ccc2c(c1F)C(=O)N(C[C@@]1(c3cc4nc(N5C(=O)CCC5C)ccc4o3)NC(=O)N(COC(=O)C(C)(C)C)C1=O)C2 (some centres unmarked) [Compound 9]
0.208 | – | CCOCCOC(=O)OCN1C(=O)N[C@@](CN2Cc3ccc(OC)cc3C2=O)(c2cc3cnccc3o2)C1=O [Compound 63.6]
0.178 | 0.351 | COc1ccc2c(c1F)C(=O)N(C[C@@]1(c3cc4nc(N)ccc4o3)NC(=O)N(COC(=O)C(C)(C)C)C1=O)C2 [Compound 18]
0.381 | – | CCOc1ccc2c(c1F)C(=O)N(C[C@]1(c3cc4nc(N5CCN(CC)CC5)ccc4o3)C(=O)N(COC(=O)C(C)(C)C)C(=O)N1COC(=O)C(C)(C)C)C2 [Compound 85]
0.156 | 0 | COc1ccc2c(c1)C(=O)N(C[C@@]1(c3cc4nc(N5CCNCC5)ccc4o3)NC(=O)N(COC(=O)C(C)(C)C)C1=O)C2 [Compound 28]
0.212 | 0 | COc1ccc2c(c1)C(=O)N(C[C@@]1(C#Cc3ccc(N4CCNCC4)cc3)NC(=O)N(COC(=O)C(C)(C)C)C1=O)C2 [Compound 25]
0.092 | 8.621 | COc1ccc2c(c1F)C(=O)N(C[C@@]1(c3cc4nc(N5CCN(C)CC5)ccc4o3)NC(=O)N(COC(=O)C(C)(C)C)C1=O)C2 [Compound 4]
0.258 | – | CCCN1CCN(c2ccc3oc([C@]4(CN5Cc6ccc(OC)c(F)c6C5=O)NC(=O)N(COC(=O)C(C)(C)C)C4=O)cc3n2)CC1 [Compound 40]
0.159 | – | COc1ccc2c(c1F)C(=O)N(C[C@]1(c3cc4nc(C(N)=O)ccc4o3)C(=O)N(COC(=O)C(C)(C)C)C(=O)N1COC(=O)C(C)(C)C)C2 [Compound 81]
0.0352 | – | COc1ccc2c(c1)C(=O)N(C[C@@]1(c3cc4cnccc4o3)NC(=O)N(COC(=O)C3(C)CCCCC3)C1=O)C2 [Compound 35.2]
0.135 | – | COc1ccc2c(c1F)C(=O)N(C[C@@]1(c3cc4cc5c(cc4o3)C(=O)NCC5)NC(=O)N(COC(=O)C(C)(C)C)C1=O)C2 [Compound 32]

From patent US8859529B2, “Compounds for the treatment of inflammatory disorders” (Merck Sharp & Dohme Corp., priority 2008, dated 2014)
